Assay results reported in the supplement of paper PMC11208160.

assay: recombinant UMI read abundance after kanamycin selection (control-corrected) (log10(CPM+1)); higher = more efficient recombination; extreme values may be limits of the assay; sequences stand for … in AGTGCAGAGAAAATCGGCCAGTTTTCTCTGCCTGCAGTCCGCATGCCGTGGGACCCCTTGGGTTCTAACCTGTTGCCTAGATTTATGCAGCGGACTGCCTTTCTCCCAAAGTGATAAACCGG…AGGTTGGTTTCACT; site = the 11-nt donor
Method: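 Pooled E. coli donor-specificity screen for the IS621 bridge recombinase. Each library member carries a reprogrammed 11-nt donor and a full-length LE bridge RNA expressed in cis from the natural promoter, with a paired donor-binding loop (8-nt LDG + 4-nt RDG) and a target-binding loop fixed to T5. It is co-electroporated with a T5 target plasmid; recombinase is induced with 0.07 mM IPTG and recombinants are selected on kanamycin. UMIs are counted as CPM, averaged over two biological replicates and corrected by the unselected control. Molecule = full bridge RNA written as DNA, built from the T5 scaffold: LDG = donor specificity nt 1-8, RDG = reverse complement of nt 8-11.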
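Note: IS621 bridge recombinase in Escherichia coli cells against a fixed T5 target plasmid.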

Sequence | recombinant UMI read abundance (log10)
AACCGTCCATGGACCGGTTTTCCCGGTAATCCGTATTTGAT (site AACCGACCTAT) | 0
AACCGTCCATGGACCGGTTTTCCCGGTAATCCGTATTTGAT (site AACCGCCCTAT) | 0.00356
AACCGTCCATGGACCGGTTTTCCCGGTAATCCGTATTTGAT (site AACCGGCCTAT) | 0.00769
AACCGTCCATGGACCGGTTTTCCCGGTAATCCGTATTTGAT (site AACCGTACTAT) | 0.0096
AACCGTCCATGGACCGGTTTTCCCGGTAATCCGTATTTGAT (site AACCGTCCTAA) | 0.0165
AACCGTCCATGGACCGGTTTTCCCGGTAATCCGTATTTGAT (site AACCGTCCTAC) | 0.0101
AACCGTCCATGGACCGGTTTTCCCGGTAATCCGTATTTGAT (site AACCGTCCTAG) | 0
AACCGTCCATGGACCGGTTTTCCCGGTAATCCGTATTTGAT (site AACCGTCCTAT) | 0.252
AACCGTCCATGGACCGGTTTTCCCGGTAATCCGTATTTGAT (site AACCGTCCTCT) | 0.00582
AACCGTCCATGGACCGGTTTTCCCGGTAATCCGTATTTGAT (site AACCGTCCTGT) | 0
AACCGTCCATGGACCGGTTTTCCCGGTAATCCGTATTTGAT (site AACCGTCCTTT) | 0.0201
AACCGTCCATGGACCGGTTTTCCCGGTAATCCGTATTTGAT (site AACCGTGCTAT) | 0.0154
AACCGTCCATGGACCGGTTTTCCCGGTAATCCGTATTTGAT (site AACCGTTCTAT) | 0.00303
AACCGTCCATGGACCGGTTTTCCCGGTAATCCGTATTTGAT (site AACCTTCCTAT) | 0.0119
AACCGTCCATGGACCGGTTTTCCCGGTAATCCGTATTTGAT (site AACGGTCCTAT) | 0.00654
AACCGTCCATGGACCGGTTTTCCCGGTAATCCGTATTTGAT (site AACTGTCCTAT) | 0.00892
AACCGTCCATGGACCGGTTTTCCCGGTAATCCGTATTTGAT (site AAGCGTCCTAT) | 0
AACCGTCCATGGACCGGTTTTCCCGGTAATCCGTATTTGAT (site AATCGTCCTAT) | 0.0138
AACCGTCCATGGACCGGTTTTCCCGGTAATCCGTATTTGAT (site ACCCGTCCTAT) | 0
AACCGTCCATGGACCGGTTTTCCCGGTAATCCGTATTTGAT (site AGCCGTCCTAT) | 0.0654
AACCGTCCATGGACCGGTTTTCCCGGTAATCCGTATTTGAT (site ATCCGTCCTAT) | 0.00558
AACCGTCCATGGACCGGTTTTCCCGGTAATCCGTATTTGAT (site CACCGTCCTAT) | 0.00991
AACCGTCCATGGACCGGTTTTCCCGGTAATCCGTATTTGAT (site GACCGTCCTAT) | 0.00938
AACCGTCCATGGACCGGTTTTCCCGGTAATCCGTATTTGAT (site TACCGTCCTAT) | 0.0405

Sequence | recombinant UMI read abundance (log10)
AACCGTGCATGGACCGGTTTTCCCGGTAATCCGTATTTGAT (site AACCGTACTAT) | 0.902
AACCGTGCATGGACCGGTTTTCCCGGTAATCCGTATTTGAT (site AACCGTCCTAT) | 0.0261
AACCGTGCATGGACCGGTTTTCCCGGTAATCCGTATTTGAT (site AACCGTGCTAT) | 1.37
AACCGTGCATGGACCGGTTTTCCCGGTAATCCGTATTTGAT (site AACCGTTCTAT) | 0
AACCTAGCATGGACCGGTTTTCCCGGTAATCCGTATTTGTT (site AACCTAGCTAA) | 0.0287
AACCTAGCATGGACCGGTTTTCCCGGTAATCCGTATTTGTT (site ACCCTAGCTAA) | 0.542
AACCTAGCATGGACCGGTTTTCCCGGTAATCCGTATTTGTT (site AGCCTAGCTAA) | 0.024
AACCTAGCATGGACCGGTTTTCCCGGTAATCCGTATTTGTT (site ATCCTAGCTAA) | 0.0182
AACCTCCCATGGACCGGTTTTCCCGGTAATCCGTATTTGGC (site AACCTCCCTGC) | 0
AACCTTCCATGGACCGGTTTTCCCGGTAATCCGTATTTGCC (site AACCTTCCTGG) | 0
AACGAAACATGGACCGGTTTTCCCGGTAATCCGTATTTGCC (site AACGAAACTGG) | 2.4
AACGGGGCATGGACCGGTTTTCCCGGTAATCCGTATTTGCG (site AACGGGGCTCG) | 1.19
AACGGTACATGGACCGGTTTTCCCGGTAATCCGTATTTGGG (site AACGGTACTCC) | 0.0069
AACGTGTCATGGACCGGTTTTCCCGGTAATCCGTATTTGAC (site AAAGTGTCTGT) | 0
AACGTGTCATGGACCGGTTTTCCCGGTAATCCGTATTTGAC (site AACGTGTCTGT) | 0
AACGTGTCATGGACCGGTTTTCCCGGTAATCCGTATTTGAC (site AAGGTGTCTGT) | 0
AACGTGTCATGGACCGGTTTTCCCGGTAATCCGTATTTGAC (site AATGTGTCTGT) | 0
AACTCAGCATGGACCGGTTTTCCCGGTAATCCGTATTTGTA (site AACTCAGCTTA) | 1.62
AACTCCGCATGGACCGGTTTTCCCGGTAATCCGTATTTGAC (site AACTCCGCTGT) | 1.92
AACTCCTCATGGACCGGTTTTCCCGGTAATCCGTATTTGCC (site AACTCCTCTGG) | 1.8
AACTCCTCATGGACCGGTTTTCCCGGTAATCCGTATTTGCC (site CACTCCTCTGG) | 2.43
AACTCCTCATGGACCGGTTTTCCCGGTAATCCGTATTTGCC (site GACTCCTCTGG) | 1.42
AACTCCTCATGGACCGGTTTTCCCGGTAATCCGTATTTGCC (site TACTCCTCTGG) | 2.61
AACTCTACATGGACCGGTTTTCCCGGTAATCCGTATTTGTG (site AACTCTACTCA) | 0.146

Sequence | recombinant UMI read abundance (log10)
AACTGCACATGGACCGGTTTTCCCGGTAATCCGTATTTGCT (site AACTGCACTAG) | 1.96
AACTTGCCATGGACCGGTTTTCCCGGTAATCCGTATTTGGC (site AACTTGCCTGC) | 0
AACTTGGCATGGACCGGTTTTCCCGGTAATCCGTATTTGGA (site AACTTGGCTTC) | 0.368
AACTTGGCATGGACCGGTTTTCCCGGTAATCCGTATTTGGA (site CACTTGGCTTC) | 0.467
AACTTGGCATGGACCGGTTTTCCCGGTAATCCGTATTTGGA (site GACTTGGCTTC) | 0.439
AACTTGGCATGGACCGGTTTTCCCGGTAATCCGTATTTGGA (site TACTTGGCTTC) | 0.393
AAGAACGCATGGACCGGTTTTCCCGGTAATCCGTATTTGGG (site AAGAACGCTCC) | 0.564
AAGAACGCATGGACCGGTTTTCCCGGTAATCCGTATTTGGG (site AAGCACGCTCC) | 0.0226
AAGAACGCATGGACCGGTTTTCCCGGTAATCCGTATTTGGG (site AAGGACGCTCC) | 0.0122
AAGAACGCATGGACCGGTTTTCCCGGTAATCCGTATTTGGG (site AAGTACGCTCC) | 0.0143
AAGAAGCCATGGACCGGTTTTCCCGGTAATCCGTATTTGCA (site AAGAAGCCTTG) | 1.32
AAGAAGCCATGGACCGGTTTTCCCGGTAATCCGTATTTGCA (site AGGAAGACTTG) | 0.00613
AAGACGACATGGACCGGTTTTCCCGGTAATCCGTATTTGGA (site AAGACGACTTC) | 0.804
AAGCACCCATGGACCGGTTTTCCCGGTAATCCGTATTTGGG (site AAGCACACTCC) | 0.0118
AAGCACCCATGGACCGGTTTTCCCGGTAATCCGTATTTGGG (site AAGCACCCTCC) | 0.0505
AAGCACCCATGGACCGGTTTTCCCGGTAATCCGTATTTGGG (site AAGCACGCTCC) | 0.00747
AAGCACCCATGGACCGGTTTTCCCGGTAATCCGTATTTGGG (site AAGCACTCTCC) | 0.371
AAGCAGACATGGACCGGTTTTCCCGGTAATCCGTATTTGGA (site AAGCAGACTTC) | 1.25
AAGCAGTCATGGACCGGTTTTCCCGGTAATCCGTATTTGAC (site AAGCAGTCTGT) | 2.88
AAGCATGCATGGACCGGTTTTCCCGGTAATCCGTATTTGGG (site AAGCAAGCTCC) | 0.0205
AAGCATGCATGGACCGGTTTTCCCGGTAATCCGTATTTGGG (site AAGCACGCTCC) | 0.00447
AAGCATGCATGGACCGGTTTTCCCGGTAATCCGTATTTGGG (site AAGCAGGCTCC) | 0.0127
AAGCATGCATGGACCGGTTTTCCCGGTAATCCGTATTTGGG (site AAGCATGCTCC) | 0.297
AAGCCGCCATGGACCGGTTTTCCCGGTAATCCGTATTTGGC (site AAGCCGCCTGC) | 0
